Experiments:
human cells [1] = details: requires long (>10 hour) pre-incubation of cells with compound; cited from earlier work
[2] = system: HR repair in HEK293 cells; assay: HR repair efficiency, DR-GFP reporter; format: cell-based, human; details: 24 hours
[3] = Glutathione stability / reactivity experiment; format: physicochemical; details: 37 °C, DMSO, five-fold molar excess of glutathione, HPLC, up to 24 hours
human RAD51 protein [4] = target: T1, human RAD51 protein (Homo sapiens, UniProt Q06609); assay: FP-based DNA binding assay; details: compound 59 μM, 0.23 μM RAD51 (Figure 2B)
T1 sequence (Q06609 1-339): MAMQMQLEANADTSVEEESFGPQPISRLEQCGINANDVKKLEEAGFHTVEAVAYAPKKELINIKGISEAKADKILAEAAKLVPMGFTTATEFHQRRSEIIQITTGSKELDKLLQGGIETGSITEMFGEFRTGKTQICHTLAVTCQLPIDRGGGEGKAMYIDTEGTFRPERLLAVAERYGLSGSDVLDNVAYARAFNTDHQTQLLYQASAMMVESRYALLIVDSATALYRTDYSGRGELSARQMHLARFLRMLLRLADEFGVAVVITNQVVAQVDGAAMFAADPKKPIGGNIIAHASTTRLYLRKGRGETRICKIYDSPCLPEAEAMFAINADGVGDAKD

HEK293 cells = assay: Sensitization of cells to MMC; format: cell-based, human; details: HEK293, varying MMC 24 hours then compound 24 hours (Figure 4)
[5] = system: single-strand annealing (SSA) in HEK293 cells; assay: SSA repair efficiency, SA-GFP reporter; format: cell-based, human; details: 24 hours
human RAD51 protein [6] = target: T1, human RAD51 protein; assay: DNA binding competition; details: 10 μM compound prior to washing (Figure 2C)
human cells [7] = details: cited from earlier work
[8] = 60 μM, compared with 1 at 20 μM

Structure (SMILES): O=c1c2ccccc2nc(/C=C/c2cccnc2)n1Cc1ccccc1 [B02]
- sensitization of cells to cross-linking chemotherapeutic drugs (human cells [1]): does successfully sensitize cells

Structure (SMILES): COc1ccc(C2=C(N3CCOCC3)C(=O)N(c3ccc(Cl)c(Cl)c3)C2=O)cc1 [7a, 1-(3,4-dichlorophenyl)-3-(4-methoxyphenyl)-4-morpholino-1H-pyrrole-2,5-dione]
- effect on HR efficiency [2, 8]: very similar effects
- reactivity with glutathione [3]: no reactivity
- time dependence of inhibition of RAD51 DNA binding activity (human RAD51 protein [4]): did not observe any time-dependent increase
- sensitization of cells to MMC (HEK293 cells): significant sensitization of cells
- effect on SSA efficiency [5, 8]: very similar effects

Structure (SMILES): O=C1C(Cl)=C(N2CCOCC2)C(=O)N1c1ccc(Cl)c(Cl)c1 [compound 1]
- RAD51 DNA binding activity after compound treatment on beads and washing (human RAD51 protein [6]): significantly inactivated
- effect on HR efficiency ([2]; 20 μM): inhibition of HR
- time dependence of inhibition of RAD51 DNA binding activity (human RAD51 protein [4]): time-dependent
- sensitization of cells to MMC (HEK293 cells): significant sensitization of cells
- effect on SSA efficiency ([5]; 20 μM): stimulation of SSA

Structure (SMILES): C[C@@]12CCC(=O)c3coc(c31)C(=O)c1cc3c(cc12)C(=O)C=CC3=O [halenaquinone]
- sensitization of cells to ionizing radiation (human cells [7]): not capable of sensitizing cells to ionizing radiation

— article PMC3619390 (Journal of medicinal chemistry, 2012)
